In patent publication US20100324059A1, “PHARMACEUTICAL COMPOSITIONS USEFUL FOR TREATING HCV” (Gilead Sciences, Inc., priority 2009, published 2010):

Tested on: HCV genotype 1b replicon cells (Huh-luc)
Experiment: Antiviral combination study of Compound 1 and Compound 2 in the HCV 1b replicon system (luciferase readout, MacSynergy II analysis)
Assay type: cell-based
Experimental: HCV genotype 1b replicon cells (Huh-luc) were obtained from Reblikon (Mainz, Germany). The replicon in these cells is designated I389luc-ubi-neo/NS3-3′/ET and encodes a selectable resistance marker (neomycin phosphotransferase) as well as the firefly luciferase reporter gene. Huh-luc cells were maintained in Dulbecco's Modified Eagle's Medium (DMEM; GIBCO, Carlsbad, Calif.) supplemented with 10% fetal bovine serum (FBS; Hyclone, Logan, Utah) and 0.5 mg/mL of G-418 (GIBCO). Cells were passaged twice a week and maintained at subconfluent levels.
Replicon cells were seeded in 96-well plates at a density of 5×10^3 cells per well in 100 μL of DMEM culture medium, excluding G-418. Compounds 1 and 2 were serially diluted 1:3 in 100% DMSO (Sigma). These serial dilutions were added to the cells at a 1:200 dilution to achieve a final concentration of 0.5% DMSO in a total volume of 200 μL. Plates were incubated at 37° C. for 3 days, after which culture media were removed and cells were lysed and assayed for luciferase activity using a commercial luciferase assay (Promega, Madison, Wis.). HCV replication levels in drug-treated samples were expressed as a percentage of those in untreated controls (defined as 100%), and data were fit to the logistic dose response equation y=a/(1+(x/b)c) using XLFit4 software (IDBS, Emeryville, Calif.). EC50 values were calculated from the resulting equations as described previously (Delaney, W. E., et al., Antimicrobial Agents Chemotherapy, 45(6):1705-1713 (2001)).
Replicon cells were seeded in 96-well plates at a density of 5×10^3 cells per well in 100 μL of culture medium. Compounds 1 and 2 were serially diluted in 100% DMSO as described above and added in a matrix format to 96-well plates, achieving a defined set of different drug concentrations and ratios in a final volume of 200 μL and a final DMSO concentration of 0.5%. For each individual drug, the EC50 value was selected as the midpoint for the concentration range tested. Cells were incubated for three days and analyzed for luciferase expression as indicated above. For the combination study, two independent experiments were performed in triplicate.
The calculated volumes of surface deviations are expressed in nM^2%. Per Prichard and Shipman, combination effects are defined as: • Highly synergistic if volumes >100 nM^2. • Moderately synergistic if volumes are >50 and ≦100 nM^2. • Additive if volumes are >−50 nM^2 and ≦50 nM^2. • Moderately antagonistic if volumes are >−100 nM^2 and ≦−50 nM^2. • Antagonistic if volumes are ≦−100 nM^2.

[1] = drug used in combination with Compound 1, 3 days, mean ± standard deviation of two or three independent experiments in triplicate

Row | Compound | interaction (Compound 1 with Compound 2) | Antagonism Volume [1] | Synergy Volume [1] | interaction (drug used in combination with Compound 1, classification per Prichard and Shipman)
1 | Fc1ccccc1-c1nc2ccn(Cc3ccc(-c4ccc(C(F)(F)F)cc4C(F)(F)F)nn3)cc-2n1 [Compound 1, 5-({6-[2,4-bis(trifluoromethyl)phenyl]pyridazin-3-yl}methyl)-2-(2-fluorophenyl)-5H-imidazo[4,5-c]pyridine] | moderate synergistic interaction |  |  | 
2 | CCC[C@H](NC(=O)[C@@H]1[C@H]2CCC[C@H]2CN1C(=O)[C@@H](NC(=O)[C@@H](NC(=O)c1cnccn1)C1CCCCC1)C(C)(C)C)C(=O)C(=O)NC1CC1 [Compound 2, (1S,3aR,6aS)—N-[1(S)-[2-(Cyclopropylamino)oxalyl]butyl]-2-[N-(pyrazin-2-ylcarbonyl)-L-cyclohexylglycyl-3-methyl-L-valyl]perhydrocyclopenta[c]pyrrole-1-carboxamide] |  | 0 ± 0 nM^2 | 79.5 ± 10.5 nM^2 | Moderate synergy
